The record followed here is US9534004B2, “Crystalline forms of ceftaroline fosamil” (Sandoz AG, priority 2012, dated 2017).

Common to all, as to assay type: physicochemical
Data set [1] in a line: Storage at different relative humidities (composition / pKa constancy). The settings on record: for change of composition when stored at different relative humidities: pKa of the drug substance not affected. An excerpt:
Both ceftaroline fosamil acetic acid solvate monohydrate and ceftaroline fosamil propionic acid solvate monohydrate of EP1310502 A1 contain carbon acids in their crystal structure. […] Consequently in order to avoid batch-wise adjusting of the pH adjusting excipient, ceftaroline fosamil acetic acid solvate monohydrate and ceftaroline fosamil propionic acid solvate monohydrate of EP1310502 A1 need to be stored at low relative humidities in order to ensure a constant carbon acid amount and therefore a constant pKa value of the drug substance.

A short description of a further data set: Residual solvent content. The settings on record: form obtained from slurry in aqueous ethanol. An excerpt:
The amounts of residual solvents of the novel forms H and D of ceftaroline fosamil of the present invention are well within the allowed ICH-limits. E.g. for the production of form H of ceftaroline fosamil of the present invention no organic solvent is used as this specific form is obtained from a slurry in water. Form D is obtained from a slurry of ceftaroline fosamil in aqueous ethanol. […] Therefore ceftaroline fosamil forms H and D are suitable forms for the preparation of a medicament.

Data set [2] can be described thus: Humidity and temperature controlled XRPD (sorptive/desorptive cycle, 0-90% RH). To be noted: RH varied between 0 and 90%, 25° C. An excerpt:
The positions of certain XRPD peaks of form H change when varying the RH between 0 and 90%. XRPD measurements in this range show anisotropic peak shifts to higher 2-theta angles on drying, which are reversible when increasing the relative humidity. These shifts are due to the shrinkage respectively the expansion of the unit cell caused by humidity dependent water contents in the sample. […] Table 1 lists some characteristic XRPD peaks from diffractograms recorded at increasing relative humidities during the sorptive cycle of the experiment.
For humidity and temperature controlled XRPD measurements samples were equilibrated in a VGI 2000M humidity chamber (SMS, Middlesex UK) with integrated peltier heat pump, circulating fluid pump and water reservoir to ensure uniform temperature distribution and stable sample humidities. RH controlled sorptive and desorptive measurements were recorded between 0%-90% RH+/−0.3% RH in 10% steps with an equilibrium time of 2 hours between consecutive measurements.

`CCO/N=C(\C(=O)N[C@@H]1C(=O)N2C(C(=O)[O-])=C(Sc3nc(-c4cc[n+](C)cc4)cs3)CS[C@H]12)c1nsc(NP(=O)(O)O)n1` [ceftaroline fosamil acetic acid solvate monohydrate, reference compound]: the “fate of carbon acid in the crystal structure at increased relative humidities” value in data set [1] (increased relative humidities, decreased carbon acid amount affects pKa of drug substance) is listed as “partially replaced by water”.

For `CCO/N=C(\C(=O)N[C@@H]1C(=O)N2C(C(=O)[O-])=C(Sc3nc(-c4cc[n+](C)cc4)cs3)CS[C@H]12)c1nsc(NP(=O)(O)O)n1` [form D, ceftaroline fosamil], the “change of composition when stored at different relative humidities” value in data set [1] is on record as “only show variations in their water content”. In addition, the “ethanol amount (residual solvent)” value in “Residual solvent content” was “below 0.5%”. For the same molecule, the “physical (solid form) stability on varying relative humidity, by XRPD” value in data set [2] is on record as “no peak shifts are observed”.

For the molecule `CCO/N=C(\C(=O)N[C@@H]1C(=O)N2C(C(=O)[O-])=C(Sc3nc(-c4cc[n+](C)cc4)cs3)CS[C@H]12)c1nsc(NP(=O)(O)O)n1` [form H, ceftaroline fosamil], the “change of composition when stored at different relative humidities” value in data set [1] is given as “only show variations in their water content”. Besides, the “physical (solid form) stability on varying relative humidity, by XRPD” value in data set [2] is “a phase transformation can be excluded”.
